Legend:
[1] = biological target: NAMPT (human, recombinant, C-terminally His-tagged) (Homo sapiens, UniProt P43490); assay: Time-Resolved Fluorescence Resonance Energy Transfer (TR-FRET) Binding Assay of NAMPT; settings: 6.8 nM NAMPT, 200 nM probe, equilibrated 3 hours, absence of substrates
Method in brief: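 Recombinant C-terminally His-tagged human NAMPT (6.8 nM) incubated 3 h at room temperature with 200 nM Oregon Green 488–labelled nicotinamide-competitive probe and 1 nM Tb-anti-His antibody in HEPES pH 7.5, 2% DMSO. TR-FRET ratio Em520/Em495 normalized to controls; IC50 from four-parameter logistic fit.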

[2] = biological target: NAMPT (Homo sapiens, UniProt P43490); assay: Time-Resolved Fluorescence Resonance Energy Transfer (TR-FRET) Binding Assay of NAMPT with PRPP; settings: 2 nM NAMPT, 2 nM probe, 200 uM PRPP and 2.5 mM ATP, equilibrated 16 hours
Sequence of NAMPT (P43490 whole entry): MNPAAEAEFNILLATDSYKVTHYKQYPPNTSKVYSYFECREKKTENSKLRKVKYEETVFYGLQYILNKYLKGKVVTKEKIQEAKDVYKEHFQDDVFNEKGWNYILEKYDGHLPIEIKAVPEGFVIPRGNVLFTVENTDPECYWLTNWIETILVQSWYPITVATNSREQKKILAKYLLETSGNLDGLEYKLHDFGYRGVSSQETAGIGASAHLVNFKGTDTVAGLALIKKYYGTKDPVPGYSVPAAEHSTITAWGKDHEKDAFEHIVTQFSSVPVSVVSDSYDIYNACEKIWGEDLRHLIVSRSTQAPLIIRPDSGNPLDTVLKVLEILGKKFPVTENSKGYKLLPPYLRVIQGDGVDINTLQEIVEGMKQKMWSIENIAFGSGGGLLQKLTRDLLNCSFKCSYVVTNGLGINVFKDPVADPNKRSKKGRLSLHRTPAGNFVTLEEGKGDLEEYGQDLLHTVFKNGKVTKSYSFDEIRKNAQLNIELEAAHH
Method in brief: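 Final mix: 2 nM NAMPT, 2 nM probe, 1 nM Tb-anti-His antibody, 200 uM PRPP, 2.5 mM ATP, 2% DMSO in 1× assay buffer. Equilibrated 16 hours before TR-FRET read, allowing possible enzymatic modification of compounds.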

Sequence of NAMPT (human, recombinant, C-terminally His-tagged) (P43490 whole entry): as above

Row | SMILES | IC50 [1] | IC50 [2]
1 | O=C(Nc1ccc(OC2CCN(C(=O)CC3CCCC3)CC2)cc1)C1CN(c2cccnc2)C1 [Example 69, N-(4-{[1-(cyclopentylacetyl)piperidin-4-yl]oxy}phenyl)-1-(pyridin-3-yl)azetidine-3-carboxamide] | 0.0686 µM | 0.000918 µM
2 | O=C(Nc1ccc(OC2CCN(C(=O)c3ccccc3Cl)CC2)cc1)C1CN(c2ccnnc2)C1 [Example 279, N-(4-{[1-(2-chlorobenzoyl)piperidin-4-yl]oxy}phenyl)-1-(pyridazin-4-yl)azetidine-3-carboxamide] | 0.0202 µM | 0.0155 µM
3 | Cc1ncccc1N1CC(C(=O)Nc2ccc(C3CCN(C(=O)c4cccn4C)CC3)cc2)C1 [Example 188, 1-(2-methylpyridin-3-yl)-N-(4-{1-[(1-methyl-1H-pyrrol-2-yl)carbonyl]piperidin-4-yl}phenyl)azetidine-3-carboxamide] | 0.0205 µM | 0.0499 µM
4 | O=C(Nc1ccc(C2CCN(C(=O)c3ccoc3)CC2)cc1)C1CN(c2cccnn2)C1 [Example 375, N-{4-[1-(furan-3-ylcarbonyl)piperidin-4-yl]phenyl}-1-(pyridazin-3-yl)azetidine-3-carboxamide] | 0.00672 µM | 0.000679 µM
5 | CC1(C(=O)N2CCC(Oc3ccc(NC(=O)C4CN(c5cccnc5)C4)cc3)CC2)CC1 [Example 66, N-[4-({1-[(1-methylcyclopropyl)carbonyl]piperidin-4-yl}oxy)phenyl]-1-(pyridin-3-yl)azetidine-3-carboxamide] | 0.0566 µM | 0.000535 µM
6 | CC1(C(=O)N2CCC(c3ccc(NC(=O)C4CN(c5cccnn5)C4)cc3)CC2)CC1 [Example 379, N-(4-{1-[(1-methylcyclopropyl)carbonyl]piperidin-4-yl}phenyl)-1-(pyridazin-3-yl)azetidine-3-carboxamide] | 0.0159 µM | 0.000432 µM
7 | CC(C)(C)OC(=O)N1CCC(c2ccc(C(=O)NC3CN(c4cccnn4)C3)cc2)CC1 [Example 314, tert-butyl 4-(4-{[1-(pyridazin-3-yl)azetidin-3-yl]carbamoyl}phenyl)piperidine-1-carboxylate] | 3.86 µM | 0.000572 µM
8 | Cc1ccsc1C(=O)N1CCC(c2ccc(NC(=O)C3CN(c4cccnc4C)C3)cc2)CC1 [Example 171, 1-(2-methylpyridin-3-yl)-N-(4-{1-[(3-methylthiophen-2-yl)carbonyl]piperidin-4-yl}phenyl)azetidine-3-carboxamide] | 0.0197 µM | 0.0379 µM
9 | CCC(C)CN1CCC(Oc2ccc(NC(=O)C3CN(c4cccnc4)C3)cc2)CC1 (stereo not drawn) [Example 80, N-(4-{[1-(2-methylbutyl)piperidin-4-yl]oxy}phenyl)-1-(pyridin-3-yl)azetidine-3-carboxamide] | 1.6 µM | 0.000686 µM
10 | O=C(Nc1ccc(OC2CCN(C(=O)C3CCCO3)CC2)cc1)C1CN(c2ccnnc2)C1 (stereo not drawn) [Example 302, 1-(pyridazin-4-yl)-N-(4-{[1-(tetrahydrofuran-2-ylcarbonyl)piperidin-4-yl]oxy}phenyl)azetidine-3-carboxamide] | 0.15 µM | 0.0483 µM
11 | Cc1ccc(C(=O)N2CCC(Oc3ccc(NC(=O)C4CN(c5cccnc5)C4)cc3)CC2)s1 [Example 62, N-[4-({1-[(5-methylthiophen-2-yl)carbonyl]piperidin-4-yl}oxy)phenyl]-1-(pyridin-3-yl)azetidine-3-carboxamide] | 0.0416 µM | 0.000666 µM
12 | O=C(Nc1ccc(C2CCN(C(=O)CC3CCCC3)CC2)cc1)C1CN(c2ccnnc2)C1 [Example 144, N-{4-[1-(cyclopentylacetyl)piperidin-4-yl]phenyl}-1-(pyridazin-4-yl)azetidine-3-carboxamide] | 0.0146 µM | 0.0344 µM
13 | O=C(Nc1ccc(C2CCN(C(=O)c3ccc(Cl)cc3Cl)CC2)cc1)C1CN(c2cccnn2)C1 [Example 362, N-{4-[1-(2,4-dichlorobenzoyl)piperidin-4-yl]phenyl}-1-(pyridazin-3-yl)azetidine-3-carboxamide] | 0.0152 µM | 0.000832 µM
14 | O=C(Nc1ccc(OC2CCN(C(=O)c3cccc(C(F)(F)F)c3)CC2)cc1)C1CN(c2cccnn2)C1 [Example 222, 1-(pyridazin-3-yl)-N-[4-({1-[3-(trifluoromethyl)benzoyl]piperidin-4-yl}oxy)phenyl]azetidine-3-carboxamide] | 0.215 µM | 0.00103 µM
15 | Cc1ccc(C(=O)N2CCC(Oc3ccc(NC(=O)C4CN(c5ccnnc5)C4)cc3)CC2)s1 [Example 304, N-[4-({1-[(5-methylthiophen-2-yl)carbonyl]piperidin-4-yl}oxy)phenyl]-1-(pyridazin-4-yl)azetidine-3-carboxamide] | 0.0554 µM | 0.0242 µM
16 | O=C(Nc1ccc(OC2CCN(C(=O)c3nccs3)CC2)cc1)C1CN(c2cccnn2)C1 [Example 213, 1-(pyridazin-3-yl)-N-(4-{[1-(1,3-thiazol-2-ylcarbonyl)piperidin-4-yl]oxy}phenyl)azetidine-3-carboxamide] | 0.104 µM | 0.000678 µM
17 | O=C(Nc1ccc(OC2CCN(C(=O)C3CCC(F)(F)CC3)CC2)cc1)C1CN(c2cccnn2)C1 [Example 216, N-[4-({1-[(4,4-difluorocyclohexyl)carbonyl]piperidin-4-yl}oxy)phenyl]-1-(pyridazin-3-yl)azetidine-3-carboxamide] | 0.228 µM | 0.00141 µM
18 | CSCC(=O)N1CCC(c2ccc(NC(=O)C3CN(c4cccnn4)C3)cc2)CC1 [Example 334, N-(4-{1-[(methylsulfanyl)acetyl]piperidin-4-yl}phenyl)-1-(pyridazin-3-yl)azetidine-3-carboxamide] | 0.0182 µM | 0.000578 µM
19 | CC(C)(C)OC(=O)N1CCC(Oc2ccc(NC(=O)[C@H]3CCN(c4cccnc4)C3)cc2)CC1 [Example 8, tert-butyl 4-[4-({[(3S)-1-(pyridin-3-yl)pyrrolidin-3-yl]carbonyl}amino)phenoxy]piperidine-1-carboxylate] | 3.36 µM | 0.0053 µM
20 | CCOCC(=O)N1CCC(Oc2ccc(NC(=O)C3CN(c4cccnc4)C3)cc2)CC1 [Example 44, N-(4-{[1-(ethoxyacetyl)piperidin-4-yl]oxy}phenyl)-1-(pyridin-3-yl)azetidine-3-carboxamide] | 0.138 µM | 0.00101 µM
21 | Cc1ncccc1N1CC(C(=O)Nc2ccc(C3CCN(C(=O)c4ccc(Cl)cc4)CC3)cc2)C1 [Example 156, N-{4-[1-(4-chlorobenzoyl)piperidin-4-yl]phenyl}-1-(2-methylpyridin-3-yl)azetidine-3-carboxamide] | 0.396 µM | 0.0843 µM
22 | Cc1ncccc1N1CC(C(=O)Nc2ccc(C3CCN(C(=O)CC(C)(C)C)CC3)cc2)C1 [Example 192, N-{4-[1-(3,3-dimethylbutanoyl)piperidin-4-yl]phenyl}-1-(2-methylpyridin-3-yl)azetidine-3-carboxamide] | 0.0473 µM | 0.0723 µM
23 | O=C(Nc1ccc(OC2CCN(C(=O)Cc3ccc(C(F)(F)F)cc3)CC2)cc1)C1CN(c2ccnnc2)C1 [Example 273, 1-(pyridazin-4-yl)-N-{4-[(1-{[4-(trifluoromethyl)phenyl]acetyl}piperidin-4-yl)oxy]phenyl}azetidine-3-carboxamide] | 0.128 µM | 0.0421 µM
24 | O=C(Nc1ccc(OC2CCN(C(=O)c3ccc(OC(F)(F)F)cc3)CC2)cc1)C1CN(c2ccnnc2)C1 [Example 290, 1-(pyridazin-4-yl)-N-[4-({1-[4-(trifluoromethoxy)benzoyl]piperidin-4-yl}oxy)phenyl]azetidine-3-carboxamide] | 0.0993 µM | 0.0457 µM
25 | O=C(Nc1ccc(OC2CCN(C(=O)c3ccccn3)CC2)cc1)C1CN(c2cccnn2)C1 [Example 242, 1-(pyridazin-3-yl)-N-(4-{[1-(pyridin-2-ylcarbonyl)piperidin-4-yl]oxy}phenyl)azetidine-3-carboxamide] | 0.278 µM | 0.00117 µM
26 | O=C(Nc1ccc(OC2CCN(C(=O)c3ccc(C(F)(F)F)cc3)CC2)cc1)C1CN(c2ccnnc2)C1 [Example 287, 1-(pyridazin-4-yl)-N-[4-({1-[4-(trifluoromethyl)benzoyl]piperidin-4-yl}oxy)phenyl]azetidine-3-carboxamide] | 0.125 µM | 0.0632 µM
27 | COc1ccc(C(=O)N2CCC(c3ccc(NC(=O)C4CN(c5cccnn5)C4)cc3)CC2)cc1 [Example 347, N-{4-[1-(4-methoxybenzoyl)piperidin-4-yl]phenyl}-1-(pyridazin-3-yl)azetidine-3-carboxamide] | 0.0662 µM | 0.00094 µM
28 | O=C(Nc1ccc(OC2CCN(C(=O)CC(F)(F)F)CC2)cc1)[C@H]1CCN(c2cccnc2)C1 [Example 18, (3S)-1-(pyridin-3-yl)-N-(4-{[1-(3,3,3-trifluoropropanoyl)piperidin-4-yl]oxy}phenyl)pyrrolidine-3-carboxamide] | 2.74 µM | 0.00532 µM
29 | Cc1ccsc1C(=O)N1CCC(Oc2ccc(NC(=O)C3CN(c4cccnc4)C3)cc2)CC1 [Example 59, N-[4-({1-[(3-methylthiophen-2-yl)carbonyl]piperidin-4-yl}oxy)phenyl]-1-(pyridin-3-yl)azetidine-3-carboxamide] | 0.0279 µM | 0.000606 µM
30 | C=CCC(=O)N1CCC(c2ccc(NC(=O)C3CN(c4cccnn4)C3)cc2)CC1 [Example 330, N-{4-[1-(but-3-enoyl)piperidin-4-yl]phenyl}-1-(pyridazin-3-yl)azetidine-3-carboxamide] | 0.0317 µM | 0.000887 µM

From patent US8975398B2, “NAMPT inhibitors” (AbbVie Inc., priority 2012, dated 2015)
